Earlier results as cited in patent publication US20180100201A1, “TUMOR AND MICROENVIRONMENT GENE EXPRESSION, COMPOSITIONS OF MATTER AND METHODS OF USE THEREOF” (The Broad Institute Inc., priority 2015, published 2018).

Test system: Factor VII
Conditions: LNP siRNA systems containing these lipids

Molecule	gene silencing potency in hepatocytes in vivo, series
1,2-dilinoleyloxy-keto-N,N-dimethyl-3-aminopropane [DLinKDMA]	DLinKC2-DMA>DLinKDMA>DLinDMA>>DLinDAP
CCCCC/C=C\C/C=C\CCCCCCCC(=O)OCC(CN(C)C)OC(=O)CCCCCCC/C=C\C/C=C\CCCCC (stereo not shown) [DLinDAP, 1,2-dilineoyl-3-dimethylammonium-propane]	DLinKC2-DMA>DLinKDMA>DLinDMA>>DLinDAP
CCCCC/C=C\C/C=C\CCCCCCCCOCC(CN(C)C)OCCCCCCCC/C=C\C/C=C\CCCCC (stereo not shown) [DLinDMA, 1,2-dilinoleyloxy-3-N,N-dimethylaminopropane]	DLinKC2-DMA>DLinKDMA>DLinDMA>>DLinDAP
CCCCC/C=C\C/C=C\CCCCCCCCC1(CCCCCCCC/C=C\C/C=C\CCCCC)OCC(CCN(C)C)O1 (stereo not shown) [DLinKC2-DMA, 1,2-dilinoleyl-4-(2-dimethylaminoethyl)-[1,3]-dioxolane]	DLinKC2-DMA>DLinKDMA>DLinDMA>>DLinDAP
